The values that follow are results of earlier work, collected in US7524881B2, “Production of Δ 9 tetrahydrocannabinol” (Resolution Chemicals Limited, priority 2002, dated 2009).

The conditions of the data set: for psychomimetic activity: qualitative background statement.

Take `C=C(C)[C@@H]1CCC(C)=C[C@H]1c1c(O)cc(CCCCC)cc1O` [Cannabidiol (CBD), cannabidiol]: the psychomimetic activity entry is recorded as “little activity”.
On to `CCCCCc1cc2c(c(O)c1C(=O)O)[C@@H]1C=C(C)CC[C@H]1C(C)(C)O2` [THCA-A, Δ9-THC carboxylic acid], for which the psychomimetic activity result is “psychomimetically inactive”.
As for `CCCCCc1cc2c(c(O)c1C(=O)O)[C@@H]1C=C(C)CC[C@H]1C(C)(C)O2` [THCA-B, Δ9-THC carboxylic acid], the psychomimetic activity result is “psychomimetically inactive”.
`CCCCCc1cc(O)c2c(c1)OC(C)(C)[C@@H]1CCC(C)=C[C@@H]21` [Δ9-THC, Delta 9 tetrahydrocannabinol]: the “psychomimetic activity relative to Δ8-THC” value (compared with Δ8-THC) was 20 times.
